One data set deals with Colinus virginianus. As to conditions: acute; oral; mortality.
A further data set has as its system Rattus norvegicus. As to conditions: for NOAEL: reproduction developmental, reproduction.
A further data set relates to Coturnix coturnix. As to conditions: reproduction developmental.
For another data set, the system named is Plant. As to conditions: not reported; seedling emergence.
The test system of another data set is Anas platyrhynchos. As to conditions: for LD50: oral, mortality.
The subject of a further data set is Canidae. As to conditions: oral, Dog Other, organ weight.
The next data set concerns Oncorhynchus mykiss. As to conditions: acute; duration: 96 hours; mortality.
A further data set relates to Bibionidae. As to conditions: chronic/long-term.
The test system of the next data set is Daphnia magna. As to conditions: chronic/long-term; duration: 21 days; reproduction.
The next data set relates to Pimephales promelas. As to conditions: chronic/long-term; duration: 30 days.
The test system of a further data set is Folsomia candida. As to conditions: chronic/long-term; duration: 4 weeks.
For the next data set, the system named is Typhlodromus pyri. Briefly: LR50; higher = less toxic. As to conditions: not reported; mortality.

Here are results for 3 molecules from EPA's ToxValDB 9.5 (doi:10.2903/j.efsa.2008.175r).

Converted amounts (≈) assume the structure as drawn.

For orientation: NOAEL means the highest dose or exposure tested at which no adverse effect was seen. On to `NC(Cc1ncn[nH]1)C(=O)O` (configuration not stated) [1,2,4-Triazole-3-alanine], for which the LD50 in the data set with Colinus virginianus is over 1340 mg/kg-day; in the data set with Rattus norvegicus (acute, oral, mortality) it was over 5000 mg/kg-day. In the data set with Rattus norvegicus, this molecule displayed an NOAEL of 100 mg/kg-day.

Take `c1nc[nH]n1` [1H-1,2,4-Triazole]: the NOEL in the data set with Coturnix coturnix is over 316 mg/kg-day.

In the data set on Plant, `CCCC(Cn1cncn1)c1ccc(Cl)cc1Cl` (configuration not stated) [Penconazole] had an LEL of 30 g/ha. For the same molecule, the LD50 is over 1590 mg/kg-day with Anas platyrhynchos (acute, unspecified); over 1840 mg/kg-day in the data set on Anas platyrhynchos (short-term, feed); 971 mg/kg-day with Oryctolagus sp. (acute, oral, mortality). Further, the NOEL in the data set on Anas platyrhynchos (reproductive) was determined as 28.6 mg/kg-day. Further, the LC50 with Tagia sp. (acute, duration: 14 days, mortality) is over 663 mg/kg; in the data set with Oncorhynchus mykiss, 1.13 µg/mL (≈ 3.98 µM). Moreover, the NOEC was over 0.34 mg/kg in the data set on Tagia sp. (chronic/long-term, duration: 56 days); 25.2 mg/kg in the data set on Bibionidae; 0.8 mg/L in the data set on Bibionidae (duration: 28 days); 0.06 mg/L with Daphnia magna; 0.32 mg/L in the data set on Pimephales promelas; 98.8 mg/kg in the data set on Folsomia candida. The NOAEL with Canidae (chronic, duration: 1 years) turned out to be 3 mg/kg-day; in the data set on Canidae (subchronic, duration: 90 days), 3 mg/kg-day; in the data set with Rattus norvegicus, 20 mg/kg-day; with Oryctolagus sp. (developmental, development), 50 mg/kg-day. Moreover, the LR50 with Typhlodromus pyri was 100 g/ha.
